# According to ChEMBL document CHEMBL5346912, “Discovery of 3,5-diaryl-1H-pyrazol-based ureas as potent RET inhibitors” (Eur J Med Chem, 2023):
# Assays:
# BaF3 [1] = assay: Antiproliferative activity against mouse BaF3 cells expressing CCDC6-RET-G810C incubated for 72 hrs by CCK8 assay; assay type: functional, cell-based; settings: BaF3, 72 h
# BaF3 [2] = assay: Antiproliferative activity against mouse BaF3 cells expressing CCDC6-RET-V804M incubated for 72 hrs by CCK8 assay; assay type: functional, cell-based; settings: BaF3, 72 h
# [3] = biological target: Proto-oncogene tyrosine-protein kinase receptor Ret (Homo sapiens, UniProt P07949); assay: Binding affinity to RET (unknown origin) assessed as dissociation constant in presence of ATP by FRET based Z'-Lyte assay
# BaF3 [4] = assay: cells; settings: Mus musculus, BaF3, 72 h
# Description: Antiproliferative activity against mouse BaF3 cells incubated for 72 hrs by CCK8 assay
# BaF3 [5] = assay: Antiproliferative activity against mouse BaF3 cells expressing CCDC6-RET-G810R incubated for 72 hrs by CCK8 assay; assay type: functional, cell-based; settings: BaF3, 72 h
# BaF3 [6] = assay: Antiproliferative activity against mouse BaF3 cells expressing CCDC6-RET incubated for 72 hrs by CCK8 assay; assay type: functional, cell-based; settings: BaF3, 72 h
# Sequence of Proto-oncogene tyrosine-protein kinase receptor Ret (P07949 whole entry): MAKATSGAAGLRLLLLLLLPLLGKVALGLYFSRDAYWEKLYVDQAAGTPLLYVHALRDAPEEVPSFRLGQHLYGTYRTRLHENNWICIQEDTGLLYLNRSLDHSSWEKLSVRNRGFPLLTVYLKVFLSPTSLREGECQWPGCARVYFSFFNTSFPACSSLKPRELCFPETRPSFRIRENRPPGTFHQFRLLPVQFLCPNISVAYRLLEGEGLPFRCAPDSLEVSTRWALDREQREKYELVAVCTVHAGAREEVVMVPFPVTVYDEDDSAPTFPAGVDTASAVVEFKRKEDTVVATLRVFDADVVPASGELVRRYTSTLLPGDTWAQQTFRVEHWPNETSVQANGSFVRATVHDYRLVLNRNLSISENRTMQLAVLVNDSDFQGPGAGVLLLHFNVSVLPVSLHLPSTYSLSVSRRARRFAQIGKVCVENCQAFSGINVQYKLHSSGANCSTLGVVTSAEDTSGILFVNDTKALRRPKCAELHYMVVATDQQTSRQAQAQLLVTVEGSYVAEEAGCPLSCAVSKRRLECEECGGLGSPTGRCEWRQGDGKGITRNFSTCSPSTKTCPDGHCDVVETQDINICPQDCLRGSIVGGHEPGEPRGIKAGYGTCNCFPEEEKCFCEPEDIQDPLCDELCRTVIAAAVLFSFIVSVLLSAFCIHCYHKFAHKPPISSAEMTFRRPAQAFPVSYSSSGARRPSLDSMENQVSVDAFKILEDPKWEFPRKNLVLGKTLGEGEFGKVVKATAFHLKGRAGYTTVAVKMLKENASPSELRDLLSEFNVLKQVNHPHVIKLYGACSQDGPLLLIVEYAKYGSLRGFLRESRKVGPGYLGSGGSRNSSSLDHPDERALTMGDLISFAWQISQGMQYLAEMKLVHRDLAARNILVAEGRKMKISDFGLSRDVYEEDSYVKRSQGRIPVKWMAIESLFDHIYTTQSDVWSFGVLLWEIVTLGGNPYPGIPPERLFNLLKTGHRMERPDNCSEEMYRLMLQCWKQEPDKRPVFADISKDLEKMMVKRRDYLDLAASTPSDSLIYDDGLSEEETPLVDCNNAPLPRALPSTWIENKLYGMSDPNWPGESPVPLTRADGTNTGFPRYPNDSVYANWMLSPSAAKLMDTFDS
IC50 (BaF3 [1]) [µM],IC50 (BaF3 [2]) [µM],Kd [3] [µM],IC50 (BaF3 [4]) [µM],IC50 (BaF3 [5]) [µM],IC50 (BaF3 [6]) [µM],SMILES
0.159,0.0279,0.0094,> 10,> 10,0.0204,CC(C)(C)c1cc(NC(=O)Nc2ccc(-c3cc(-c4ccc(OCCN5CCOCC5)c(Cl)c4)[nH]n3)cc2)no1
0.131,0.0104,0.0061,0.442,0.417,0.0121,COc1cc(-c2cc(-c3ccc(NC(=O)Nc4cc(C(C)(C)C)on4)cc3)n[nH]2)ccc1OCCN1CCOCC1
0.0999,0.0066,0.0081,> 3,1.32,0.0071,CC(C)(C)c1cc(NC(=O)Nc2ccc(-c3cc(-c4ccc(OCCN5CCOCC5)cc4)[nH]n3)cc2F)no1
0.131,0.0105,0.002,1.18,0.532,0.0093,CN(C)CCCOc1ccc(-c2cc(-c3ccc(NC(=O)Nc4cc(C(C)(C)C)on4)cc3)n[nH]2)cc1
1.83,1.18,0.0265,1.09,1.07,0.585,CC(C)(C)c1cc(NC(=O)Nc2ccc(-c3cn(-c4ccc(OCCN5CCOCC5)cc4Cl)nn3)cc2)no1
0.126,0.014,0.0097,> 10,2.25,0.0106,CC(C)(C)c1cc(NC(=O)Nc2ccc(-c3cc(-c4ccc(OCCN5CCOCC5)c(F)c4)[nH]n3)cc2)no1
0.139,0.0052,0.0056,0.184,0.23,0.0071,COc1cc(-c2cc(-c3ccc(NC(=O)Nc4cc(C(C)(C)C(F)(F)F)on4)cc3)n[nH]2)ccc1OCCN1CCOCC1
0.122,0.0074,0.0102,> 10,0.313,0.0067,COc1cc(-c2cc(-c3ccc(NC(=O)Nc4cc(C(C)(C)C)on4)c(F)c3)n[nH]2)ccc1OCCN1CCOCC1
0.114,0.0041,–,1.04,0.358,0.005,CO[C@]1(C(=O)N[C@@H](C)c2ccc(-n3cc(F)cn3)nc2)CC[C@@H](c2nc(C)cc(Nc3cc(C)[nH]n3)n2)CC1
0.682,0.339,0.0102,0.424,0.869,0.328,CC(C)(C)c1cc(NC(=O)Nc2ccc(-c3n[nH]c(-c4ccc(OCCN5CCOCC5)cc4Cl)n3)cc2)no1
0.166,0.0124,0.0041,1.08,0.57,0.0096,CC(C)(C)c1cc(NC(=O)Nc2ccc(-c3cc(-c4ccc(OCCCN5CCOCC5)cc4)[nH]n3)cc2)no1
0.335,0.036,0.021,> 10,0.746,0.029,CC(C)(C)c1cc(NC(=O)Nc2ccc(-c3cc(-c4ccc(OCCN5CCOCC5)cc4)[nH]n3)cc2Cl)no1
0.412,0.0181,0.0083,> 10,> 10,0.0179,CC(C)(C)c1cc(NC(=O)Nc2ccc(-c3cc(-c4ccc(OCCN5CCOCC5)cc4F)[nH]n3)cc2)no1
1.31,0.026,–,> 3,0.883,0.0115,COc1ccc(CN2[C@@H]3C[C@H]2CN(c2ccc(-c4cc(OCC(C)(C)O)cn5ncc(C#N)c45)cn2)C3)cn1
0.587,0.188,0.006,1.56,1.02,0.226,CC(C)(C)c1cc(NC(=O)Nc2ccc(-c3cc(-c4cccc(OCCN5CCOCC5)c4)[nH]n3)cc2)no1
2.04,0.173,0.0125,> 3,1.96,0.12,Cc1cc(OCCN2CCOCC2)ccc1-c1cc(-c2ccc(NC(=O)Nc3cc(C(C)(C)C)on3)cc2)n[nH]1
